# From patent publication US20230414637A1 (priority 2020, published 2023)
# Read-outs that look alike come from different tables or passages of the source.
# How the values were obtained:
# [1] = Literature aqueous solubility of niclosamide; details: van Tonder et al [17], converted
# [2] = for supernatant concentration reached at 3 hrs: more efficient stirring, pH 9.5, nominal 1 mM
# [3] = Dissolution and conversion of Sigma niclosamide (3 hrs and overnight stirring)
# GR = details: read-out: relative trans-activation potency (EC50); cited from earlier work
# [4] = system: SARS-CoV-2 in Vero 6 cells; details: Vero 6 cells, Jeon et al [14]; read-out: IC50 for viral replication; cited from earlier work
# [5] = system: SARS-CoV-2 in Calu-3 cells; details: Ko et al [34]; cited from earlier work
# [6] = system: oxidative phosphorylation; details: cited from earlier work
# [7] = cited from earlier work
# [8] = Equilibrium dissolution of AK Sci niclosamide versus pH (supernatant concentration by UV/Vis at 333 nm); details: for Average [Nic] (uM) UV/Vis, 333 nm), supernatant concentration: 20° C.
# [9] = Dissolution of niclosamide solvates (water precipitate, acetone and ethanol recrystallized) at pH 9.3; details: for initial dissolution rate, intrinsic parameter: pH 9.3 buffer, 3.5 mgs in 10 mls; for solubility (equilibrium supernatant concentration several days after dissolution): pH 9.3
# Description: To start to evaluate the various expected polymorphs and to try and obtain a morphology that was perhaps like the purchased materials (of unknown processing), three samples were made i.e., the “water-hydrate” precipitated from ethanol into excess water and two that were recrystallized from acetone and from ethanol.
# It was filtered on a sintered glass filter, washed three times with deionized water, and dried. The material was ground by mortar and pestle ready for the dissolution test and viewed microscopically to evaluate its crystal morphology.
# Each material was also viewed microscopically to evaluate their crystal morphologies.
# Dissolution of the solvates. […] 2 uL aliquots were taken directly from the stirred solution in the 20 mL scintillation vial at appropriate time intervals and absorbance at 333 nm was measured by nanodrop spectrophotometer.
# [10] = pH 7.09
# [11] = type: physicochemical
# Description: pH=pKa+Log10[Nic−ve]/[NicOH] Eqn 1
# pHp=pKa+log(S−So)/So Eqn 4
# So=the molar intrinsic solubility of the undissociated acid (NicOH), and S=the molar concentration of the salt form initially added.
# [12] = Supersaturated solution precipitation of niclosamide: amount in solution; details: pH 9.3, equilibrated
# [13] = same pH as Yomesan extraction (pH 9.3)
smiles,measurement,setting,value
O.O=C(Nc1ccc([N+](=O)[O-])cc1Cl)c1cc(Cl)ccc1O [Monohydrates HB],solubility of crystal forms in distilled water,[1],1.87 µM
O=C(Nc1ccc([N+](=O)[O-])cc1Cl)c1cc(Cl)ccc1O [Sigma niclosamide],supernatant concentration reached at 3 hrs,[2],680 µM
same,"fitted logarithmic dissolution rate, factor of ln(x)","[2]; pH 9.44 buffer, more optimized (standardized) stirring",116
same,reduction of amount of niclosamide in supernatant solution after overnight equilibration,[3]; over the whole pH range,~3.5 ×
same,solubility after overnight equilibration,[3]; pH 9.3,103 µM
same,polymorph stability of excess powder in stirred buffer,[3]; several hours after the first 3 hrs,converted to a much lower solubility polymorph
same,loss of material concentration from 3 hrs to 24 hrs,[3]; ~pH 9.5,434 µM
same,supernatant niclosamide concentration at 3 hrs,[3]; ~pH 9.5,681 µM
same,supernatant niclosamide concentration after 24 hrs (overnight stirring),"[3]; ~pH 9.5, filtered 0.22 um",247 µM
CCC(=O)O[C@]1(C(=O)SCF)[C@H](C)C[C@H]2[C@@H]3C[C@H](F)C4=CC(=O)C=C[C@]4(C)[C@@]3(F)[C@@H](O)C[C@@]21C [fluticasone propionate],EC50,GR,0.32 ± 0.04 nM
Cc1cccc(C)c1OCC(=O)N[C@@H](Cc1ccccc1)[C@@H](O)C[C@H](Cc1ccccc1)NC(=O)[C@H](C(C)C)N1CCCNC1=O [lopinavir],IC50,[4],7.28 µM
N=C(N)c1ccc2cc(OC(=O)c3ccc(N=C(N)N)cc3)ccc2c1 [Nafamostat],antiviral activity,[5],few nanomolar
FC(F)(F)c1nc2c(Cl)c(Cl)c(Cl)c(Cl)c2[nH]1 [TTFB],concentration of uncoupling activity,[6]; Terada [39],100 nM
same,pKa,[7]; in 50% ethanol,5.5
CC(C)(C)c1cc(Cl)cc(C(=O)Nc2ccc([N+](=O)[O-])cc2Cl)c1O [S-13],concentration of uncoupling activity,[6]; Terada [39],30 nM
same,pKa,[7]; Terada [39],6.57
O=C(Nc1ccc([N+](=O)[O-])cc1Cl)c1cc(Cl)ccc1O [Nic−ve],solubility limit of the negatively charged salt,[8]; pH 9.5,~640 µM
same,solubility limit of the deprotonated salt,[8]; pH 9.63,at least 703.6 uM
same,solubility limit of the negatively charged salt,[8]; pH not stated at the place,≥ 670 µM
O=C(Nc1ccc([N+](=O)[O-])cc1Cl)c1cc(Cl)ccc1O [NicEtOH-recrys],"initial dissolution rate, intrinsic parameter",[9],0.0439 µM/mg
"CC(C)(C)c1cc(C=C(C#N)C#N)cc(C(C)(C)C)c1O [SF 6847, 3,5-Di-tert-butyl-4-hydroxy-benzylidene-Malononitrile]",concentration of uncoupling activity,[6]; Terada [39],10 nM
same,pKa,[7]; Terada [39],6.83
O=C(O)c1ccccc1Nc1cccc(C(F)(F)F)c1 [flufenamic acid],concentration of uncoupling activity,[6]; Terada [39],50000 nM
same,pKa,[7]; Terada [39],3.85
CCN(CC)CCCC(C)Nc1ccnc2cc(Cl)ccc12 (centres unmarked) [chloroquine],IC50,[4],9.12 µM
N#CC(C#N)=NNc1ccc(OC(F)(F)F)cc1 [FCCP],concentration of uncoupling activity,[6],100 nM
O.O=C(Nc1ccc([N+](=O)[O-])cc1Cl)c1cc(Cl)ccc1O [presumed monohydrate],solubility,[10],1.24 µM
same,expected concentration in solution from pHp model,[11]; pH 6,1 uM
O=C(Nc1ccc([N+](=O)[O-])cc1Cl)c1cc(Cl)ccc1O [NicAcetone-recrys],solubility (equilibrium supernatant concentration several days after dissolution),[9]; listed as acetone recrystallized material,79.4 µM
same,"initial dissolution rate, intrinsic parameter",[9],0.0369 µM/mg
O=C(Nc1ccc([N+](=O)[O-])cc1Cl)c1cc(Cl)ccc1O [NicH20ppt],solubility (equilibrium supernatant concentration several days after dissolution),[9]; listed as water solvate,132.6 µM
same,"initial dissolution rate, intrinsic parameter",[9],0.104 µM/mg
O=C(Nc1ccc([N+](=O)[O-])cc1Cl)c1cc(Cl)ccc1O [precipitated material],solubility of material precipitated in situ from supersaturated solution,[12],180.9 µM
O=C(Nc1ccc([N+](=O)[O-])cc1Cl)c1cc(Cl)ccc1O [AK Sci Niclosamide],"Average [Nic] (uM) UV/Vis, 333 nm), supernatant concentration","[8]; measured pH 3.64, stirred to equilibrium (48 hrs)",2.53 µM
same,"Average [Nic] (uM) UV/Vis, 333 nm), supernatant concentration","[8]; measured pH 7.05, 48 hrs",8.68 µM
same,"Average [Nic] (uM) UV/Vis, 333 nm), supernatant concentration","[8]; measured pH 7.64, 48 hrs",16.75 µM
same,"Average [Nic] (uM) UV/Vis, 333 nm), supernatant concentration","[8]; measured pH 8.06, 48 hrs",25.83 µM
same,"Average [Nic] (uM) UV/Vis, 333 nm), supernatant concentration","[8]; measured pH 8.26, 48 hrs",47.26 µM
same,"Average [Nic] (uM) UV/Vis, 333 nm), supernatant concentration","[8]; measured pH 8.53, 48 hrs",83.31 µM
same,"Average [Nic] (uM) UV/Vis, 333 nm), supernatant concentration","[8]; measured pH 8.75, 48 hrs",137.29 µM
same,"Average [Nic] (uM) UV/Vis, 333 nm), supernatant concentration","[8]; measured pH 9.04, 48 hrs",215.66 µM
same,"Average [Nic] (uM) UV/Vis, 333 nm), supernatant concentration","[8]; measured pH 9.22, 48 hrs",344.32 µM
same,"Average [Nic] (uM) UV/Vis, 333 nm), supernatant concentration","[8]; measured pH 9.32, 48 hrs",382.68 µM
same,"Average [Nic] (uM) UV/Vis, 333 nm), supernatant concentration","[8]; measured pH 9.4, 48 hrs",466.14 µM
same,"Average [Nic] (uM) UV/Vis, 333 nm), supernatant concentration","[8]; measured pH 9.63, 48 hrs",703.26 µM
same,limiting (intrinsic) solubility So of the protonated acid,[8]; pH 3.66,2.53 µM
same,polymorph stability of excess powder in stirred buffer,"[8]; stirred 24 hrs and longer, days, in presence of original powder",did not readily convert to the less soluble hydrates
same,clear supernatant solution concentration,[13],520 µM
same,solubility (equilibrium supernatant concentration several days after dissolution),[9],~383 µM
same,supernatant concentration reached at 3 hrs,[2]; listed as AK Sci niclosamide,564 µM
same,"fitted logarithmic dissolution rate, pre-ln factor","[2]; pH 8.62, nominal 1 mM, first hour",22
same,"fitted logarithmic dissolution rate, pre-ln factor","[2]; pH 8.72, nominal 1 mM",24
same,"fitted logarithmic dissolution rate, pre-ln factor","[2]; pH 9.06, nominal 1 mM",38
same,initial rate of dissolution / extraction over first three minutes,[2]; pH 9.3 buffer,51.7 µM/min
same,intrinsic dissolution rate,"[2]; pH 9.3 buffer, converted from uM/min",0.28 µg/s
same,"fitted logarithmic dissolution rate, pre-ln factor","[2]; pH 9.36, nominal 1 mM",71
same,pKa fitted from pHp curve to supernatant concentration data,[11]; So 2.53 uM,7.12
Oc1c(Cl)c(Cl)c(Cl)c(Cl)c1Cl [PCP],concentration of uncoupling activity,[6]; Terada [39],1000 nM
same,pKa,[7]; Terada [39],4.80
O=C(Nc1ccc([N+](=O)[O-])cc1Cl)c1cc(Cl)ccc1O [Anhydrate],solubility of crystal forms in distilled water,[1],40.4 µM
O.O=C(Nc1ccc([N+](=O)[O-])cc1Cl)c1cc(Cl)ccc1O [Monohydrates HA],solubility of crystal forms in distilled water,[1],2.9 µM
